Data as given in ChEMBL document CHEMBL5052856, “Inhibitors of apol1 and methods of using same” (2021).

Molecular target: Apolipoprotein L1 (Homo sapiens, UniProt O14791)
Test: Inhibition of APOL1 G1 variant in human HEK293-T-REx cells measured by Thallium assay
Format: cell-based

SMILES | IC50
NC(=O)CCNC1CC(c2c(-c3ccc(F)cc3)[nH]c3c(F)cc(F)cc23)C1 (centres undefined) | > 1000 nM
O=C(NC1(CO)CC(F)(F)C1)C1CC(Cc2c(-c3ccc(F)cc3)[nH]c3c(F)cc(F)cc23)C1 (centres undefined) | > 1000 nM
C[C@H](O)[C@H](CO)NC(=O)O[C@H]1C[C@H](c2c(-c3ccc(F)cc3)[nH]c3c(F)cc(F)cc32)C1 | > 1000 nM
CC(O)(CO)CNC(=O)C1CC(Cc2c(-c3ccc(F)cc3)[nH]c3c(F)cc(F)cc23)C1 (centres undefined) | > 1000 nM
O=C(NCCO)O[C@H]1C[C@H](c2c(-c3ccc(F)cc3)[nH]c3c(F)cc(F)cc32)C1 | 0.25 nM
O=C(NCC(O)CO)O[C@H]1C[C@H](c2c(-c3ccc(F)cc3)[nH]c3c(F)cc(F)cc32)C1 (some centres undefined) | > 1000 nM
O=C(N[C@H]1CCOC1=O)C1CC(Cc2c(-c3ccc(F)cc3)[nH]c3c(F)cc(F)cc23)C1 (some centres undefined) | > 1000 nM
CC(NC(=O)C1CC(Cc2c(-c3ccc(F)cc3)[nH]c3c(F)cc(F)cc23)C1)c1ccn(C)n1 (centres undefined) | > 1000 nM
Cn1cnc(CNC(=O)O[C@H]2C[C@H](c3c(-c4ccc(F)cc4)[nH]c4c(F)cc(F)cc43)C2)c1 | > 1000 nM
Cc1nn(C)cc1CNC(=O)C1CC(Cc2c(-c3ccc(F)cc3)[nH]c3c(F)cc(F)cc23)C1 (centres undefined) | > 1000 nM
Cc1noc(CNC(=O)C2CC(Cc3c(-c4ccc(F)cc4)[nH]c4c(F)cc(F)cc34)C2)n1 (centres undefined) | > 1000 nM
O=C(NC1CC1)O[C@H]1C[C@H](c2c(-c3ccc(F)cc3)[nH]c3c(F)cc(F)cc32)C1 | 0.25 nM
C[C@@H](CO)NC(=O)N[C@H]1C[C@H](c2c(-c3ccc(F)cc3)[nH]c3c(F)cc(F)cc32)C1 | 0.25 nM
O=C(Nc1ccc[nH]c1=O)C1CC(Cc2c(-c3ccc(F)cc3)[nH]c3c(F)cc(F)cc23)C1 (centres undefined) | > 1000 nM
O=C(NCc1cnco1)O[C@H]1C[C@H](c2c(-c3ccc(F)cc3)[nH]c3c(F)cc(F)cc32)C1 | 0.25 nM
CC(O)C(C)NC(=O)O[C@H]1C[C@H](c2c(-c3ccc(F)cc3)[nH]c3c(F)cc(F)cc32)C1 (some centres undefined) | > 1000 nM
COCC(C)NC(=O)O[C@H]1C[C@H](c2c(-c3ccc(F)cc3)[nH]c3c(F)cc(F)cc32)C1 (some centres undefined) | 0.25 nM
O=C1CC(CNC(=O)C2CC(Cc3c(-c4ccc(F)cc4)[nH]c4c(F)cc(F)cc34)C2)CN1 (centres undefined) | > 1000 nM
O=C(NCC1CC1)O[C@H]1C[C@H](c2c(-c3ccc(F)cc3)[nH]c3c(F)cc(F)cc32)C1 | > 1000 nM
CC(CO)NC(=O)O[C@H]1C[C@H](c2c(-c3ccc(F)cc3)[nH]c3c(F)cc(F)cc32)C1 (some centres undefined) | 0.25 nM
COC[C@H](C)NC(=O)O[C@H]1C[C@H](c2c(-c3ccc(F)cc3)[nH]c3c(F)cc(F)cc32)C1 | > 1000 nM

SMILES | IC50
Cc1cc(CNC(=O)C2CC(Cc3c(-c4ccc(F)cc4)[nH]c4c(F)cc(F)cc34)C2)nn1C (centres undefined) | > 1000 nM
O=C(NCC1(O)CCC1)C1CC(Cc2c(-c3ccc(F)cc3)[nH]c3c(F)cc(F)cc23)C1 (centres undefined) | > 1000 nM
O=C(NCC(F)F)O[C@H]1C[C@H](c2c(-c3ccc(F)cc3)[nH]c3c(F)cc(F)cc32)C1 | 0.25 nM
Cn1cc(CNC(=O)C2CC(Cc3c(-c4ccc(F)cc4)[nH]c4c(F)cc(F)cc34)C2)cn1 (centres undefined) | > 1000 nM
CC(C)(O)CCNC(=O)C1CC(Cc2c(-c3ccc(F)cc3)[nH]c3c(F)cc(F)cc23)C1 (centres undefined) | > 1000 nM
CC(=O)NCCNC(=O)C1CC(Cc2c(-c3ccc(F)cc3)[nH]c3c(F)cc(F)cc23)C1 (centres undefined) | > 1000 nM
O=C(NCc1ccoc1)C1CC(Cc2c(-c3ccc(F)cc3)[nH]c3c(F)cc(F)cc23)C1 (centres undefined) | > 1000 nM
COC1(CNC(=O)C2CC(Cc3c(-c4ccc(F)cc4)[nH]c4c(F)cc(F)cc34)C2)CCOC1 (centres undefined) | > 1000 nM
O=C(NCC1(O)CCCC1)C1CC(Cc2c(-c3ccc(F)cc3)[nH]c3c(F)cc(F)cc23)C1 (centres undefined) | > 1000 nM
C[C@@H](O)CNC(=O)C1CC(Cc2c(-c3ccc(F)cc3)[nH]c3c(F)cc(F)cc23)C1 (some centres undefined) | > 1000 nM
O=C(NCCO)C1CC(Cc2c(-c3ccc(F)cc3)[nH]c3c(F)cc(F)cc23)C1 (centres undefined) | 0.25 nM
N#CC(CO)NC(=O)C1CC(Cc2c(-c3ccc(F)cc3)[nH]c3c(F)cc(F)cc23)C1 (centres undefined) | > 1000 nM
CC(C)C[C@@H](CO)NC(=O)C1CC(Cc2c(-c3ccc(F)cc3)[nH]c3c(F)cc(F)cc23)C1 (some centres undefined) | > 1000 nM
C[C@@H](O)CNC(=O)N[C@H]1C[C@H](c2c(-c3ccc(F)cc3)[nH]c3c(F)cc(F)cc32)C1 | > 1000 nM
CC1(CNC(=O)C2CC(Cc3c(-c4ccc(F)cc4)[nH]c4c(F)cc(F)cc34)C2)CCOC1 (centres undefined) | > 1000 nM
CC1(NC(=O)C2CC(Cc3c(-c4ccc(F)cc4)[nH]c4c(F)cc(F)cc34)C2)CCNC1=O (centres undefined) | > 1000 nM
O=C(NC(CO)CO)N[C@H]1C[C@H](c2c(-c3ccc(F)cc3)[nH]c3c(F)cc(F)cc32)C1 | > 1000 nM
C[C@H](O)CNC(=O)C1CC(Cc2c(-c3ccc(F)cc3)[nH]c3c(F)cc(F)cc23)C1 (some centres undefined) | > 1000 nM
O=C(N[C@@H](CO)C(F)(F)F)C1CC(Cc2c(-c3ccc(F)cc3)[nH]c3c(F)cc(F)cc23)C1 (some centres undefined) | > 1000 nM
O=C(NCc1cnco1)C1CC(Cc2c(-c3ccc(F)cc3)[nH]c3c(F)cc(F)cc23)C1 (centres undefined) | > 1000 nM
O=C(NCC1CCOC1)C1CC(Cc2c(-c3ccc(F)cc3)[nH]c3c(F)cc(F)cc23)C1 (centres undefined) | > 1000 nM

SMILES | IC50
CC1(NC(=O)C2CC(Cc3c(-c4ccc(F)cc4)[nH]c4c(F)cc(F)cc34)C2)CCOC1 (centres undefined) | > 1000 nM
C[C@H](NC(=O)C1CC(Cc2c(-c3ccc(F)cc3)[nH]c3c(F)cc(F)cc23)C1)C(C)(C)O (some centres undefined) | > 1000 nM
CNC(=O)CN[C@H]1C[C@H](c2c(-c3ccc(F)cc3)[nH]c3c(F)cc(F)cc32)C1 | 0.25 nM
CC(C)NC(=O)CN[C@H]1C[C@H](c2c(-c3ccc(F)cc3)[nH]c3c(F)cc(F)cc32)C1 | > 1000 nM
O=C(NCC1CC(F)(F)C1)C1CC(Cc2c(-c3ccc(F)cc3)[nH]c3c(F)cc(F)cc23)C1 (centres undefined) | > 1000 nM
CS(=O)(=O)CCNC(=O)C1CC(Cc2c(-c3ccc(F)cc3)[nH]c3c(F)cc(F)cc23)C1 (centres undefined) | > 1000 nM
O=C(NC1CCNC1=O)N[C@H]1C[C@H](c2c(-c3ccc(F)cc3)[nH]c3c(F)cc(F)cc32)C1 (some centres undefined) | > 1000 nM
O=C(NCC1CCCO1)C1CC(Cc2c(-c3ccc(F)cc3)[nH]c3c(F)cc(F)cc23)C1 (centres undefined) | > 1000 nM
C[C@H](CO)NC(=O)O[C@H]1C[C@H](c2c(-c3ccc(F)cc3)[nH]c3c(F)cc(F)cc32)C1 | 0.25 nM
NC(=O)CNC(=O)O[C@H]1C[C@H](c2c(-c3ccc(F)cc3)[nH]c3c(F)cc(F)cc32)C1 | < 250 nM
Cn1cnc(CNC(=O)C2CC(Cc3c(-c4ccc(F)cc4)[nH]c4c(F)cc(F)cc34)C2)c1 (centres undefined) | > 1000 nM
O=C(NCc1ccc[nH]c1=O)C1CC(Cc2c(-c3ccc(F)cc3)[nH]c3c(F)cc(F)cc23)C1 (centres undefined) | > 1000 nM
C[C@H](O)CNC(=O)O[C@H]1C[C@H](c2c(-c3ccc(F)cc3)[nH]c3c(F)cc(F)cc32)C1 | > 1000 nM
O=C(NC(CO)(CO)CO)O[C@H]1C[C@H](c2c(-c3ccc(F)cc3)[nH]c3c(F)cc(F)cc32)C1 | < 250 nM
O=C(N[C@@H]1CCNC1=O)O[C@H]1C[C@H](c2c(-c3ccc(F)cc3)[nH]c3c(F)cc(F)cc32)C1 | 0.25 nM
CC(C)(CO)NC(=O)O[C@H]1C[C@H](c2c(-c3ccc(F)cc3)[nH]c3c(F)cc(F)cc32)C1 | 0.25 nM
CC(NC(=O)C1CC(Cc2c(-c3ccc(F)cc3)[nH]c3c(F)cc(F)cc23)C1)C1CCOC1 (centres undefined) | > 1000 nM
O=C(NC1(CCO)CC1)C1CC(Cc2c(-c3ccc(F)cc3)[nH]c3c(F)cc(F)cc23)C1 (centres undefined) | > 1000 nM
C[C@@H](O)CNC(=O)O[C@H]1C[C@H](c2c(-c3ccc(F)cc3)[nH]c3c(F)cc(F)cc32)C1 | > 1000 nM
NC(=O)CNC1CC(c2c(-c3ccc(F)cc3)[nH]c3c(F)cc(F)cc23)C1 (centres undefined) | > 1000 nM
COCC1(CNC(=O)C2CC(Cc3c(-c4ccc(F)cc4)[nH]c4c(F)cc(F)cc34)C2)CC1 (centres undefined) | > 1000 nM

SMILES | IC50
C[C@@H](CO)NC(=O)O[C@H]1C[C@H](c2c(-c3ccc(F)cc3)[nH]c3c(F)cc(F)cc32)C1 | 0.25 nM
CC1(O)CC(NC(=O)O[C@H]2C[C@H](c3c(-c4ccc(F)cc4)[nH]c4c(F)cc(F)cc43)C2)C1 (some centres undefined) | > 1000 nM
O=C(NCc1cocn1)C1CC(Cc2c(-c3ccc(F)cc3)[nH]c3c(F)cc(F)cc23)C1 (centres undefined) | > 1000 nM
O=C(Nc1c[nH][nH]c1=O)C1CC(Cc2c(-c3ccc(F)cc3)[nH]c3c(F)cc(F)cc23)C1 (centres undefined) | > 1000 nM
NC(=O)CN[C@H]1C[C@H](c2c(-c3ccc(F)cc3)[nH]c3c(F)cc(F)cc32)C1 | > 1000 nM
CC1(O)CC(NC(=O)C2CC(Cc3c(-c4ccc(F)cc4)[nH]c4c(F)cc(F)cc34)C2)C1 (centres undefined) | > 1000 nM
O=C(CN[C@H]1C[C@H](c2c(-c3ccc(F)cc3)[nH]c3c(F)cc(F)cc32)C1)NC1CC1 | > 1000 nM
O=C(NCc1ncc[nH]1)C1CC(Cc2c(-c3ccc(F)cc3)[nH]c3c(F)cc(F)cc23)C1 (centres undefined) | > 1000 nM
CC(C)(O)CNC(=O)C1CC(Cc2c(-c3ccc(F)cc3)[nH]c3c(F)cc(F)cc23)C1 (centres undefined) | > 1000 nM
O=C(NCC1(CO)CC1)C1CC(Cc2c(-c3ccc(F)cc3)[nH]c3c(F)cc(F)cc23)C1 (centres undefined) | > 1000 nM
O=C(NCc1cnn(CC(F)(F)F)c1)C1CC(Cc2c(-c3ccc(F)cc3)[nH]c3c(F)cc(F)cc23)C1 (centres undefined) | > 1000 nM
O=C(NCc1ncc[nH]1)O[C@H]1C[C@H](c2c(-c3ccc(F)cc3)[nH]c3c(F)cc(F)cc32)C1 | > 1000 nM
C[C@@H](O)[C@@H](CO)NC(=O)O[C@H]1C[C@H](c2c(-c3ccc(F)cc3)[nH]c3c(F)cc(F)cc32)C1 | > 1000 nM
O=C(NCC1CCOCC1)C1CC(Cc2c(-c3ccc(F)cc3)[nH]c3c(F)cc(F)cc23)C1 (centres undefined) | > 1000 nM
Cn1ccnc1CNC(=O)C1CC(Cc2c(-c3ccc(F)cc3)[nH]c3c(F)cc(F)cc23)C1 (centres undefined) | > 1000 nM
O=C(NCC(O)C(F)F)C1CC(Cc2c(-c3ccc(F)cc3)[nH]c3c(F)cc(F)cc23)C1 (centres undefined) | > 1000 nM
Cn1cncc1CNC(=O)C1CC(Cc2c(-c3ccc(F)cc3)[nH]c3c(F)cc(F)cc23)C1 (centres undefined) | > 1000 nM
CON(C)C(=O)CN[C@H]1C[C@H](c2c(-c3ccc(F)cc3)[nH]c3c(F)cc(F)cc32)C1 | > 1000 nM
O=C(N[C@H](CO)C(F)(F)F)O[C@H]1C[C@H](c2c(-c3ccc(F)cc3)[nH]c3c(F)cc(F)cc32)C1 | > 1000 nM
O=C(NCc1ccc(=O)[nH]c1)C1CC(Cc2c(-c3ccc(F)cc3)[nH]c3c(F)cc(F)cc23)C1 (centres undefined) | > 1000 nM
CC(C)C[C@H](CO)NC(=O)C1CC(Cc2c(-c3ccc(F)cc3)[nH]c3c(F)cc(F)cc23)C1 (some centres undefined) | > 1000 nM
